Experimental data as given in BigSolDB 2.1.

O=C([O-])/C=C/C(=O)O.[Na+]
solubility (mole fraction)
Conditions | 283.15 K | 293.15 K | 303.15 K | 313.15 K | 323.15 K
in 1,4-dioxane | – | 0.000152 | 0.000165 | 0.000185 | 0.000234
in acetone | – | 2.81e-05 | 3.78e-05 | 4.83e-05 | 6.67e-05
in acetonitrile | 4.79e-05 | 5.26e-05 | 5.58e-05 | 6.32e-05 | 7.05e-05
in ethanol | 5.51e-05 | 6.4e-05 | 7.35e-05 | 8.74e-05 | 9.51e-05
in ethyl acetate | 9.88e-05 | 0.000121 | 0.000167 | 0.000219 | 0.000284
in isobutanol | 9.6e-06 | 1.26e-05 | 1.62e-05 | 2.36e-05 | 3.17e-05
in isopropanol | 2.3e-05 | 3.02e-05 | 4.08e-05 | 5.16e-05 | 6.76e-05
in methanol | 0.000417 | 0.000454 | 0.000495 | 0.000532 | 0.000572
in n-butanol | 2.25e-05 | 4.63e-05 | 5.97e-05 | 7.6e-05 | 9.43e-05
in n-pentanol | 3.44e-05 | 4.21e-05 | 4.93e-05 | 5.45e-05 | 6.5e-05
in n-propanol | 4.82e-05 | 6.3e-05 | 7.13e-05 | 8.71e-05 | 0.000102
in water | 0.00712 | 0.00908 | 0.0114 | 0.0138 | 0.0172
